Reference: patent US11634486B2, “Anti-SEZ6L2 antibodies and antibody drug conjugates” (Bluefin BioMedicine, Inc., priority 2016, dated 2023)

Test system: small cell lung cancer cell line NCI-H209
Test: ADC combined with PARP inhibitor, cell viability
Format: cell-based, human
Conditions: olaparib 10 nM to 10 uM, six days
Method: Briefly, the small cell lung cancer cell line NCI-H209, which expresses ˜10,000 copies of SEZ6L2 on the cell surface, was seeded onto 96 well plate at 5000 cells/well Immediately after seeding, 10 pM of 3E2-PBD or isotype control hIgG-PBD (bearing a drug antibody ratio (DAR) of 1.7 and 2.5 respectively) were added to the wells in complete culture medium. A PARP inhibitor (olaparib) was then added to these wells such that the final concentration ranged from 10 nM to 10 uM. The PARP inhibitor was also tested on cells without an ADC. Each treatment was replicated in 2 wells and after six days, the PARP inhibitor plus modulator-mediated PBD cytotoxicity was assessed by quantifying the remaining number of live cells using Cell Titer Glo™. Cell viability was graphed by Prism™ using ratio of cell viability of test conditions to that of control wells treated with growth medium only.

SMILES: O=C(c1cc(Cc2n[nH]c(=O)c3ccccc23)ccc1F)N1CCN(C(=O)C2CC2)CC1 [olaparib, reference compound]
- percent viable cells, PARP inhibitor alone: responded in a dose dependent manner
